From US8883963B2 (Cadila Healthcare Limited, priority 2007, dated 2014)
Starred links: 1 amine or outer side, 2 acyl side, 3 side chain; linkers in the order of their positions; H or OH if unused. Non-standard residues stand in square brackets, D forms with d. Residues, ends and D or L forms follow the SMILES beside them. ξ: configuration not given here. ξBip(2'-Et-4'-OMe) = CCc1cc(OC)ccc1-c1ccc(CC(N)C(=O)O)cc1; X1 = O=C(C(CCCc1ccc(C(F)(F)F)cc1F)N[*:1])[*:2]; Aib = CC(C)(N)C(=O)O

Columns and labels:
[1] = target: T1, Human GLP-1 receptor (Homo sapiens, UniProt P43220); experiment: In vitro Human GLP-1 R agonist activity (cyclic AMP determination) in CHO/human GLP1R cells; assay type: cell-based
T1 construct: The full-length cDNA was cloned in pcDNA3.1(+); expressed in transfected cells
Procedure: The novel peptidomimetics were screened for Human GLP-1 receptor (HGLP-1 R) agonist activity (in vitro), using the cAMP cell-based assay, in stably transfected CHO/human GLP1R cells. […] CHO cells were grown in Ham's F12 medium containing L-Glutamine (2 mM), HEPES (25 mM), NaHCO3 (1.1 g/L) and supplemented with NewBorn Calf Serum (NBCS; 10%), Penicillin (50 U/ml (v/v)) and Streptomycin (50 ug/ml (v/v)). Cells were split every 3 days 1:8.
The cDNA encoding the human GLP-1 receptor was isolated by RT-PCR according to standard protocol. The full-length cDNA was cloned in pcDNA3.1(+). […] Clones expressing the receptor were generated by G418 (800 μg/ml active, Sigma) selection. The stable clones were thereafter maintained at 500 ug/ml (G418). The selected clone was used between passages 9-25 for cAMP assays.
The trypsin was inactivated using Ham's F12 medium containing 10% NBCS and the cells were suspended in 2 ml of complete medium. […] The medium was aspirated off from the 12 well plate and the cells were washed once using Ham's F12 (plain). […] The cells were incubated with the test compounds for 30 min in humidified atmosphere and 37° C. After the incubation, the medium was removed and cells were washed once with plain Ham's F12. Subsequently, the cells were lysed by adding 500 ul of ice cold 0.1 N HCl to each well and shaking for 30 minutes at 200 rpm. The cells were then scrapped, the lysate was collected in micro centrifuge tubes and centrifuged at 12000 rpm for 10 min to remove the debris. 300 ul of supernatant from each micro-centrifuge tube was then removed into a glass tube and dried under N2 for 30 min, for cAMP estimation. The total cAMP was estimated from the sample according to the manufacturer's protocol using Cyclic AMP immunoassay kit (R&D systems, Minneapolis. MN). The remaining supernatant is used to determine the protein concentration using micro BCA (Sigma). Data is calculated as percent of control (Vehicle: water) and expressed as Mean±SD.

[2] = target: DPP IV (Homo sapiens, UniProt P27487); experiment: Stability against DPP IV enzyme; assay type: in vitro ADME; details: 37° C.; for % degradation of peptidomimetics in 24 h when incubated with DPP-IV enzyme: 2 μM peptidomimetic; for half-life at 2 μM: DPP IV enzyme, pH 7.8, 2 μM peptidomimetic, read-out: half-life (t1/2) when incubated with DPP-IV enzyme
Procedure: (§1) Reactions were terminated by the addition of TFA/H2O (15 mL, 10% (v/v)). […] The column was equilibrated with TFA/H20, at a flow rate of 1 mL/min.

[3] = Stability in human plasma; assay type: in vitro ADME; details: 2 μM peptidomimetic, pooled human plasma, 37° C.; for half-life at 2 μM: pH 7.8, read-out: half-life (t1/2) when incubated with human plasma
Procedure: as §1

[4] = Stability in simulated gastric fluid; assay type: in vitro ADME; details: 2 μM peptidomimetic, simulated gastric fluid pH 1.5, 37° C.; for half-life at 2 μM: read-out: half-life (t1/2) when incubated with simulated gastric fluid
Procedure: as §1

[5] = Stability in simulated intestinal fluid; assay type: in vitro ADME; details: 2 μM peptidomimetic, simulated intestinal fluid pH 7.5, 37° C.; for half-life at 2 μM: read-out: half-life (t1/2) when incubated with simulated intestinal fluid
Procedure: as §1

[6] = Stability in liver microsomes; assay type: in vitro ADME; details: 2 μM peptidomimetic, human liver microsomes, 37° C.; for half-life at 2 μM: pH 7.8, read-out: half-life (t1/2) when incubated with liver microsomes
Procedure: as §1

[7] = target: T2, human glucagon receptor (Homo sapiens, UniProt P47871); experiment: In vitro human glucagon antagonist activity (inhibition of cAMP production) in CHO/human glucagon R cells; assay type: cell-based; details: with saturated concentration of glucagon peptide
T2 construct: The full-length cDNA was cloned in pcDNA3.1 (Invitrogen); expressed in transfected cells
T2 sequence (P47871 26-477): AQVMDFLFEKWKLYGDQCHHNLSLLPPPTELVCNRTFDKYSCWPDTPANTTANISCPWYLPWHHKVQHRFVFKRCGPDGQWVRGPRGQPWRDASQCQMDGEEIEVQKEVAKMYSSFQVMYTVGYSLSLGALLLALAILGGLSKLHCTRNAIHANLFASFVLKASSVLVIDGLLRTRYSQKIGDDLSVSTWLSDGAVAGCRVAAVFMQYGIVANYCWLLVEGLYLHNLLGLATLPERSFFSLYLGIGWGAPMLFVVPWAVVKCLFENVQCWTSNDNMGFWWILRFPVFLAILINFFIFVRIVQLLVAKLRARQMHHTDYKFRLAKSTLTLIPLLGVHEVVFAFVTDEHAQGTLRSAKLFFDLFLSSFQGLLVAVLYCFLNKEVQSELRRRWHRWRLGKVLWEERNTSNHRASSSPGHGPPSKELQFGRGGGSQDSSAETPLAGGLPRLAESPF

Sequence of DPP IV (P27487 whole entry, species assumed): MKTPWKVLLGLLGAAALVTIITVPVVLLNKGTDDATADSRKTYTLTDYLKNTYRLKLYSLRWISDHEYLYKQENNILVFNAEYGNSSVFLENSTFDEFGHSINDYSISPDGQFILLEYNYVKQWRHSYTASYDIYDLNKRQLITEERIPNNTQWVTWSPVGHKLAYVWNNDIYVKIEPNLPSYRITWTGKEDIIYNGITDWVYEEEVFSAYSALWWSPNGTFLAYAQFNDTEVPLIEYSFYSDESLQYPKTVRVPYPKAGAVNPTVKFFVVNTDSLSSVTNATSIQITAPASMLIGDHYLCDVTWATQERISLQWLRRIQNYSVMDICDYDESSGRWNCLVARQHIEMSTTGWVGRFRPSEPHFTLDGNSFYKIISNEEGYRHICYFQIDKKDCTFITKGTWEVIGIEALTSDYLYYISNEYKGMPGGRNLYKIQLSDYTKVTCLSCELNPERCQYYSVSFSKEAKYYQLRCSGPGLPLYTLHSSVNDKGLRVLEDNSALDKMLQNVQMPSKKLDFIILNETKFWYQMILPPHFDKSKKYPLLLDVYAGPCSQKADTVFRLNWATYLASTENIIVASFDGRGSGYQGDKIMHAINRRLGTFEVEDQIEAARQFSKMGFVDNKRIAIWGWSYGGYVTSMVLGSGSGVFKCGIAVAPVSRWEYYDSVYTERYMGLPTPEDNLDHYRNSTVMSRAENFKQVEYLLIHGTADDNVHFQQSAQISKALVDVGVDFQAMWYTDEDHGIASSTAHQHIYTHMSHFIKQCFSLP
T1 sequence (P43220 24-463): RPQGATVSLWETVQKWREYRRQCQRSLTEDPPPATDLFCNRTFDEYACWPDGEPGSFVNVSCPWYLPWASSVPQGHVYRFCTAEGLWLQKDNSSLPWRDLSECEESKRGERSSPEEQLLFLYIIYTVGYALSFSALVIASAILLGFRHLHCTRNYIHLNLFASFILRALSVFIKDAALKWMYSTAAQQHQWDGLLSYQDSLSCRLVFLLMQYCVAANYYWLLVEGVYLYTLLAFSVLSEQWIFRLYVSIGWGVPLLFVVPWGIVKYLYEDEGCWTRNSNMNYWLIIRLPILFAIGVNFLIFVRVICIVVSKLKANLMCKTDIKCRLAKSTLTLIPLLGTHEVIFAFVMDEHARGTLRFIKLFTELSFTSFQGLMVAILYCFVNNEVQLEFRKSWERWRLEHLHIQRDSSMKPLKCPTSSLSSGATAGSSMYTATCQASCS

SMILES	Human GLP-1 R activity (cAMP release), % activity with respect to control ([1]; 1 nM test compound) [%]	Human GLP-1 R activity (cAMP release), % activity with respect to control ([1]; 10 nM test compound) [%]	Human GLP-1 R activity (cAMP release), % activity with respect to control ([1]; 100 nM test compound) [%]	Human GLP-1 R activity (cAMP release), % activity with respect to control ([1]; 1 μM test compound) [%]	Human GLP-1 R activity (cAMP release), % activity with respect to control ([1]; 10 μM test compound) [%]	% degradation of peptidomimetics in 24 h when incubated with DPP-IV enzyme [2] [%]	half-life at 2 μM [2] [h]	% degradation of peptidomimetics in 24 h when incubated with human plasma [3] [%]	half-life at 2 μM [3] [h]	% degradation of peptidomimetics in 24 h when incubated with simulated gastric fluid [4] [%]	half-life at 2 μM [4] [h]	% degradation of peptidomimetics in 24 h when incubated with simulated intestinal fluid [5] [%]	half-life at 2 μM [5] [h]	% degradation of peptidomimetics in 24 h when incubated with liver microsomes [6] [%]	half-life at 2 μM [6] [h]	half-life (t1/2) when incubated with simulated gastric fluid [4]	half-life (t1/2) when incubated with simulated intestinal fluid [5]	other results
CCc1cc(OC)ccc1-c1ccc(CC(NC(=S)[C@H](CC(=O)O)NC(=O)[C@H](CO)NC(=O)[C@@H](NC(=O)C(C)(Cc2ccccc2F)NC(=O)[C@@H](NC(=O)CNC(=O)C(CCC#N)NC(=O)C(C)(C)NC(=O)[C@@H](N)Cc2c[nH]cn2)[C@H](C)O)[C@H](C)O)C(=S)NC(CCCc2ccccc2F)C(N)=O)cc1 (single isomer, unassigned) [compound 180]	40 ± 0.11	81 ± 0.09	89 ± 0.06	96 ± 0.14	99 ± 0.19	00	> 24	00	> 24	50	4	00	> 24	86	2	–	–	–
CCc1cc(OC)ccc1-c1ccc(CC(CNC(CCCc2ccccc2)C(N)=O)NC(=O)[C@H](CC(=O)O)NC(=O)[C@H](CO)NC(=O)[C@@H](NC(=O)C(C)(Cc2ccccc2F)NC(=O)[C@@H](NC(=O)CNC(=O)[C@H](CCC(N)=O)NC(=O)C(C)(C)NC(=O)[C@H](Cc2c[nH]cn2)NC(C)=O)[C@H](C)O)[C@H](C)O)cc1 (single isomer, unassigned) [compound 185]	46 ± 0.022	85 ± 0.46	90 ± 0.41	99 ± 0.66	99 ± 0.03	00	> 24	00	> 24	55	4	00	> 24	84	2	–	–	–
CCc1cc(OC)ccc1-c1ccc(CC(NC(=O)[C@H](CC(=O)O)NC(=O)[C@H](CO)NC(=O)[C@@H](NC(=O)C(C)(Cc2ccccc2F)NC(=O)[C@@H](NC(=O)CNC(=O)[C@H](CC(C(F)(F)F)C(F)(F)F)NC(=O)C(C)(C)NC(=O)[C@@H](N)Cc2c[nH]cn2)[C@@H](C)O)[C@H](C)O)C(=O)NC(CCCc2ccccc2F)C(N)=O)cc1 (single isomer, unassigned) [compound 224]	99 ± 0.06	99 ± 0.06	99 ± 0.08	99 ± 0.10	99 ± 0.12	00	> 24	00	> 24	00	> 24	00	> 24	26	–	–	–	half-life (t1/2) when incubated with liver microsomes [6]: (5) h
CCc1cc(OC)ccc1-c1ccc(CC(NC(=O)[C@H](CC(=O)O)NC(=O)[C@H](CO)NC(=O)[C@@H](NC(=O)[C@H](Cc2ccccc2)NC(=O)[C@@H](NC(=O)CNC(=O)[C@H](CCC(N)=O)NC(=O)[C@H](C)NC(=O)[C@@H](N)Cc2c[nH]cn2)[C@@H](C)O)[C@@H](C)O)C(=O)NC(CCCc2ccc(Cl)cc2C)C(N)=O)cc1 (single isomer, unassigned) [compound 16]	99 ± 0.11	99 ± 0.13	99 ± 0.16	99 ± 0.06	99 ± 0.10	70	9	71	8	14	–	40	–	78	1	(8) h	(6) h	–
CCc1cc(OC)ccc1-c1ccc(CC(NC(=O)[C@H](CC(=O)O)NC(=O)[C@H](CO)NC(=O)[C@@H](NC(=O)[C@H](Cc2ccccc2)NC(=O)[C@@H](NC(=O)CNC(=O)[C@H](CCC(N)=O)NC(=O)C(C)(C)NC(=O)[C@@H](N)Cc2c[nH]cn2)[C@@H](C)O)[C@@H](C)O)C(=O)NC(CCCc2ccc(C(F)(F)F)cc2F)C(N)=O)cc1 (stereo partly drawn) [compound 65] (H-H[Aib]QGTFTSD[ξBip(2'-Et-4'-OMe)][X1]-NH2)	–	–	–	–	–	76	9	78	8	14	–	43	–	80	1	(8) h	(6) h	Human Glucagon receptor antagonistic activity shown as inhibition of cAMP production of Glucagon peptide ([7]; 1 nM test compound): 10 ± 0.12 pmol/ml/μg prt; Human Glucagon receptor antagonistic activity shown as inhibition of cAMP production of Glucagon peptide ([7]; 10 nM test compound): 8 ± 0.02 pmol/ml/μg prt; Human Glucagon receptor antagonistic activity shown as inhibition of cAMP production of Glucagon peptide ([7]; 100 nM test compound): 6 ± 0.04 pmol/ml/μg prt; Human Glucagon receptor antagonistic activity shown as inhibition of cAMP production of Glucagon peptide ([7]; 1 μM test compound): 4 ± 0.05 pmol/ml/μg prt; Human Glucagon receptor antagonistic activity shown as inhibition of cAMP production of Glucagon peptide ([7]; 10 μM test compound): 1 ± 0.02 pmol/ml/μg prt
